From US7659081B2, “Determination of AM-binding proteins and the association of adrenomedullin (AM) therewith” (The United States of America as represented by the …, priority 1999, dated 2010)
In brackets after ≈: the same amount, converted by molar mass.

How the values were obtained:
[1] = system: E. coli cells (ATCC 35218); type: cell-based
Procedure: FIG. 9 illustrates the effect of factor H on AM activity. […] Values represent mean and standard deviation of four independent determinations. […] Results are expressed in inhibition units (10 units correspond to 1 mm of diameter in the inhibition halo). MIC values were estimated by performing a linear regression and determining the x-intercepts. […] Values represent mean and standard deviation of the mean of eight determinations.
Antimicrobial activity was measured using E. coli cells (ATCC 35218, Gaithersburg, Md.) and a radial diffusion assay as previously described (R. I. Lehrer et al., 1991, J. Immunol. Methods 137:167-173). Briefly, bacteria were incorporated into a thin underlay gel that contained 1% agarose, 2 mM HEPES pH 7.2, and 0.3 mg/ml of trypticase soy broth powder. After polymerization of the gel, small wells (10 μl capacity) were carved in the agar. Test substances were added and allowed to diffuse for 3 hr at 37° C. […] The diameters of the inhibition halos were measured to the nearest 0.1 mm and, after subtracting the diameter of the well, were expressed on inhibition units (10 units=1 mm). […]
For statistical calculations, MIC values were analyzed by the Student's t test, cAMP values were analyzed with a one-way analysis of variance (ANOVA) and the Tukey's test, and P<0.05 was considered significant.

[2] = target: T1, AMBP-1 (factor H) (Homo sapiens, UniProt P08603); assay: Ligand blot competition of labeled AM binding to plasma AMBP-1; details: 7 μM unlabeled peptide, preincubation 6 hr at 4° C.
T1 construct: Total proteins derived from human plasma (2 μl) were electrophoretically fractionated; from tissue; host or cells: human plasma
T1 sequence (P08603 19-1231): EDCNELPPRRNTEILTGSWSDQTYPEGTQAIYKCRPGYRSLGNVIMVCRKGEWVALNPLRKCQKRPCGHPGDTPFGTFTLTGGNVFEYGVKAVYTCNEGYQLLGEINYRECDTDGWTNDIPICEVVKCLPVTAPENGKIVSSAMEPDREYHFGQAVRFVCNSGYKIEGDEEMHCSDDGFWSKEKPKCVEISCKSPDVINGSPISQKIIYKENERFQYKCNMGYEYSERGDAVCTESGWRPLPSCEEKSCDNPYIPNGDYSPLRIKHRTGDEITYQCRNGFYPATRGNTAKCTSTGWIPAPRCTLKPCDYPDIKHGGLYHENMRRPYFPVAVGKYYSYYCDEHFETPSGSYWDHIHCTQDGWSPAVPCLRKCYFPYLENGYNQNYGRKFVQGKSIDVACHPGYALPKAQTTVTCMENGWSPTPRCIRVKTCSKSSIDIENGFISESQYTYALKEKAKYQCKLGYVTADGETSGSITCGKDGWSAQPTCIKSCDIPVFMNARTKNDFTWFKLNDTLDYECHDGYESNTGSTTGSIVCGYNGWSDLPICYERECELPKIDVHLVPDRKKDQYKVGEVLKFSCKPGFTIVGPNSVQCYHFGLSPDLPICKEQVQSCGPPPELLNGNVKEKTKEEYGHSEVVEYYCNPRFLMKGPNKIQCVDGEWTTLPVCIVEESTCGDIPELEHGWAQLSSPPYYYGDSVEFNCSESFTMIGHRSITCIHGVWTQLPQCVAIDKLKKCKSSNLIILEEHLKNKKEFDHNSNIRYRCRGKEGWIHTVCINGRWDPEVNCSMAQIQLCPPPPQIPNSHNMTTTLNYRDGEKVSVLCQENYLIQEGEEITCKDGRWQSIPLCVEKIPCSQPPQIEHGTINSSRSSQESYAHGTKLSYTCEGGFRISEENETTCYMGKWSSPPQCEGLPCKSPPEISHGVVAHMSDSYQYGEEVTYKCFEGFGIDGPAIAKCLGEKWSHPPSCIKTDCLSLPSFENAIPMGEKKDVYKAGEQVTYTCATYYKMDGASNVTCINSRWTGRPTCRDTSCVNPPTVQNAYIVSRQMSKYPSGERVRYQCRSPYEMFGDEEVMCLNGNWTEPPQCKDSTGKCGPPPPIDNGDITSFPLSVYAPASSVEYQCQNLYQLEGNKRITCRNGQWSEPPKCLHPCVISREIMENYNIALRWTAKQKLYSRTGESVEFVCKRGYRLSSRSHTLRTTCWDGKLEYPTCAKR
Procedure: Total proteins derived from human plasma (2 μl) were electrophoretically fractionated on 3-8% Tris-acetate gel (Novex, San Diego, Calif.) under non-reducing conditions. For the ligand blotting experiment, the proteins were transferred to a […] nitrocellulose membrane that was incubated for […] with 1% Nonidet P-40 (NP-40). Non-specific binding was further blocked with a 2 hr incubation in TBS containing 0.1% ATC. Incubations with 70 nM AM labeled with biotin, fluorescein, or DNP were carried out overnight at 4° C. in blocking buffer containing 0.1% TWEEN® 20 nonionic detergent. For biotin detection, the ligand blot was incubated with an avidin-biotin-peroxidase complex and the AEC reagent (Vector Laboratories, Inc., Burlingame, Calif.). For fluorescein and DNP, the ligand blots were incubated 1 hr at room temperature with rabbit anti-fluorescein or anti-DNP IgG, respectively, (1:1000 in incubation buffer; Molecular Probes, Inc.). Anti-rabbit antibody labeled with alkaline phosphatase (1:2000; Dako Corporation, Carpenteira, Calif.) was added for 0.5 hr, and the blot was developed using 4-nitro blue tetrazolium chloride/5-bromo-4-chloro-3-indolyl phosphate (NBT/BCIP) as the color-substrate solution (Roche Molecular Biochemicals, Indianapolis, Ind.).
Following this preincubation, labeled full-length AM was introduced and incubated overnight at 4° C.

[3] = target: factor H (Homo sapiens, UniProt P08603); assay: Cofactor activity of factor H: C3b cleavage with factor I; type: biochemical; details: 24 hr at 37° C.
Chain of factor H (P08603 19-1231): as above
Procedure: FIG. 10 illustrates the effect of AM on factor H activity. C3b (104 kDa α′ chain and 71 kDa β chain) was incubated 24 hr at 37° C. with factor H, factor I, and various peptides. Cleavage of the C3b α′ chain produced three bands with molecular weights 68 kD, 43 kD, and 42 kD.
To measure the cofactor activity of factor H, C3b (28 pmols) was incubated with factor I (0.16 pmols) and factor H (0.16 pmols) in the presence or absence of AM and related peptides for 24 hr at 37° C. in a final volume of 50 μl of PBS. Samples were fractionated by SDS-PAGE using 4-12% Tris-Bis gels (Novex) under reducing conditions, and stained with Coomassie Blue. C3b and factor I were purchased from Advanced Research Technologies (San Diego, Calif.). FIGS. 10A and 10B.

[4] = system: AM-binding protein; assay: Competitive displacement of 125I-AM on radioligand blot strips; details: increasing concentrations, 10^−10 to 10^−6 M
Procedure: Further detection and characterization of AM-BPs were performed using radioligand blotting procedures similar to those described for IGF binding proteins in plasma (P. Hossenlopp et al., 1986, Anal. Biochem. 154:138-146). Briefly, plasma or serum from the ten species was diluted 1:5 with water and further mixed 1:2 with SDS Tris-glycineglycerol loading buffer and incubated for 10 min at 70° C. Plasma or serum volumes equivalent to 1.5 μl were loaded onto 10% acrylamide gels under non-reducing conditions. Proteins were separated at 115 v for 0.5 hr and transferred to 0.2 μm nitrocellulose using a semi-moist transfer (Bio-Rad Hercules, Calif.) at 18 v for 42 min. Molecular weight markers (29 kD, 43 kD, 66 kD, 78 kD, and 116 kD) were added to complementary lanes on each gel to assess the relative sizes of the resolved proteins.
Nitrocellulose blots were incubated for 15 min with 1.5% NP-40 (Sigma, St. Louis, Mo.). Nonspecific binding was further blocked with a 4 hr incubation of the nitrocellulose in phosphate buffered saline containing either 1% BSA (RIA Grade, SIGMA, St. Louis, Mo.) or 1% AHC. Incubations with radiolabeled recombinant human ^125I-AM were performed overnight at room temperature with agitation, with 80,000 CPM ^125I-hAM per 5 ml protein blocking matrix. […]

[5] = system: insulin secretion; details: cited from earlier work
[6] = intravenous injection; cited from earlier work

CC[C@H](C)[C@H](NC(=O)[C@H](CCC(N)=O)NC(=O)[C@H](Cc1c[nH]cn1)NC(=O)[C@H](C)NC(=O)[C@H](CC(C)C)NC(=O)[C@H](CCCCN)NC(=O)[C@H](CCC(N)=O)NC(=O)[C@@H](NC(=O)[C@@H](NC(=O)[C@@H]1CSSC[C@H](NC(=O)CNC(=O)[C@H](Cc2ccccc2)NC(=O)[C@H](CO)NC(=O)[C@H](CCCNC(=N)N)NC(=O)[C@H](CC(C)C)NC(=O)CNC(=O)[C@H](CCC(N)=O)NC(=O)[C@H](Cc2ccccc2)NC(=O)[C@H](CC(N)=O)NC(=O)[C@H](CC(N)=O)NC(=O)[C@H](CCSC)NC(=O)[C@H](CO)NC(=O)[C@H](CCC(N)=O)NC(=O)[C@H](CCCNC(=N)N)NC(=O)[C@@H](N)Cc2ccc(O)cc2)C(=O)N[C@@H](CCCNC(=N)N)C(=O)N[C@@H](Cc2ccccc2)C(=O)NCC(=O)N[C@@H]([C@@H](C)O)C(=O)N1)[C@@H](C)O)C(C)C)C(=O)N[C@@H](Cc1ccc(O)cc1)C(=O)N[C@@H](CCC(N)=O)C(=O)N[C@@H](Cc1ccccc1)C(=O)N[C@H](C(=O)N[C@@H](CC(=O)O)C(=O)N[C@@H](CCCCN)C(=O)N[C@@H](CC(=O)O)C(=O)N[C@@H](CCCCN)C(=O)N[C@@H](CC(=O)O)C(=O)N[C@@H](CC(N)=O)C(=O)N[C@H](C(=O)N[C@@H](C)C(=O)N1CCC[C@H]1C(=O)N[C@@H](CCCNC(=N)N)C(=O)N[C@@H](CO)C(=O)N[C@@H](CCCCN)C(=O)N[C@H](C(=O)N[C@@H](CO)C(=O)N1CCC[C@H]1C(=O)N[C@@H](CCC(N)=O)C(=O)NCC(=O)N[C@@H](Cc1ccc(O)cc1)C(N)=O)[C@@H](C)CC)C(C)C)[C@@H](C)O [AM, Adrenomedullin]
MIC value [1]: 18.4 ± 1.3 µg/mL (≈ 3.05 µM)
Competition for labeled AM/AMBP-1 complex on ligand blot [2]: able to dissociate the AM/AMBP-1 (AM/fH) complex
Effect on fH/fI-mediated cleavage of C3b [3]: enhances fH/fI-mediated cleavage of C3b
Displacement of 125I-AM from AMBPs [4]: linear competitive displacement
Insulin secretion [5]: inhibits insulin secretion in a dose-dependent manner
Insulin and glucose in the bloodstream [6]: reduces the levels of insulin in the bloodstream with a concomitant increase in circulating glucose
